melting point [°C] | SMILES
184 | CCCCc1nc(Cl)c(CO)n1Cc1ccc(-c2ccccc2-c2nn[nH]n2)cc1
196 | O=C(O)c1ccc(C2CCCCC2)cc1
153 | OC(c1ccc(F)cc1)C(O)c1ccc(F)cc1 (centres undefined)
79 | CC(=O)CCc1oc2ccc(Br)cc2c1-c1ccc(C)o1
195 to 196 | COCc1cc(O)nc(SC)n1
85 to 86 | Cc1nn(-c2ccccc2)c(C)c1C#N
265 to 266 | O=[N+]([O-])c1ccc(N/N=C2\C=C(c3ccccc3)c3ccccc32)cc1
57 to 61 | N#Cc1c(F)cc(F)cc1F
131 | CC1(C)CC(O)CC(C)(C)N1
80 to 84 | Clc1ccc(-c2cc[nH]n2)cc1
-112 | C=COC(C)(C)C
39.5 | O=C1OCCO1
-43 | OCC1CCCCC1
35 | CC(=O)CCCCC(=O)O
-69 | CC(C)SSC(C)C
44 to 47 | CCOc1ccc(CC#N)cc1
208 to 212 | C[N+](C)(C)CC(O)CC(=O)[O-] (centres undefined)
180 to 183 | NC(=S)C1COc2ccccc2O1 (centres undefined)
28 | C#CC(O)c1ccccc1 (centres undefined)
42 to 46 | CC1(C)OCC2OC3OC(C)(C)OC3C2O1 (centres undefined)
253 | CC1CCc2cc(F)cc3c(=O)c(C(=O)O)cn1c23 (centres undefined)

melting point [°C] | SMILES
81.5 to 82.5 | Clc1nccc(-c2ccco2)n1
176 to 178 | COC1(OC)C2C=CC(C)(O2)C1C(=O)O (centres undefined)
79 to 80 | COc1cccc(OC)c1SC
119 | CCNC(=O)C(C)OC(=O)Nc1ccccc1 (centres undefined)
90 | CCOc1c(N2CCOCC2)cnn(C)c1=O
236 to 237 | CC(=O)Nc1ccc(-c2ccc(/N=N/c3ccccc3)cc2)cc1
73.5 | O=C(OCCOC(=O)c1ccccc1)c1ccccc1
118 | COc1c(Br)ccc2c1C(=O)C2
104 | OC(CCCN1CCCCC1)(c1ccccc1)c1ccccc1
63 | N#CC1CNc2ccccc2O1 (centres undefined)
117 to 118 | O=C(O)C1Cc2ccccc2O1 (centres undefined)
147 | COc1ccc(C)c(C(=O)O)c1
250 | COc1ccc(C=C2C(=O)NN=C2c2c(O)c3ccccc3n(C)c2=O)cc1
188 | Cc1c2c(c(C)c3c1CC3=O)C(=O)C2
69 | O=S(=O)(Cl)c1c(Cl)sc(Cl)c1Br
95 | Cc1cccc(NC(=O)c2cnc(C(C)(C)C)cn2)c1
115 | Ic1c(-c2ccccc2)cccc1-c1ccccc1
82 | COc1ccc(OC)c(C#N)c1
67 | COCCN1CCCNCC1
123 | O=[N+]([O-])c1cc2c(cc1CO)OCO2
70 | CCOC(=O)c1c(C)oc2c(F)c(F)c(F)c(F)c12

melting point [°C] | SMILES
138 | Nc1ccc(Br)cn1
246 | CC(=O)Oc1c(-c2ccccc2)[nH]c2cc3c(cc12)C(=O)C(c1ccccc1)=[N+]3[O-]
110 to 112 | NC(=S)c1cccc(-n2cccc2)c1
164 | O=C(CNc1cccc(NCC(=O)c2ccccc2)c1)c1ccccc1
265 to 267 | O=C(O)c1cccc2c1-c1ccc(I)cc1C2
50 to 51 | COC(=O)c1sccc1Br
134 to 139 | O=C(O)c1c(F)c(F)c(F)c(F)c1[N+](=O)[O-]
88.5 | O=C(NC(Cc1ccccc1)C(=O)O)OCc1ccccc1 (centres undefined)
113 to 115 | CC1(C)CC(=O)c2cc(-c3ccccc3)n(CCc3ccccc3)c2C1
128 to 130 | OCc1cc(Cl)nc(Cl)c1
134 to 135 | OCCCc1nc2cc(C(F)(F)F)ccc2[nH]1
-48 | CCCCCCCc1ccccc1
74 | OCCC12CC3CC(CC(C3)C1)C2
222 | O=[N+]([O-])c1ccc(NN=Cc2cccc3c(Br)cccc23)c([N+](=O)[O-])c1
132 to 134 | Cc1nccn1-c1ccccc1N
71 | C=C1C(=O)C23C(OC(C)=O)CC4C5(C)CCCC4(C(OC)OC5)C2C(OC(C)=O)CC1C3OC(C)=O (centres undefined)
135 to 137 | Nc1cc(C(F)(F)F)ccc1N1CCOCC1
-73 | CCCC/C=C/CCCC
97 | CC12CCC(C(=Cc3ccccc3)C1=O)C2(C)C (centres undefined)
-26 | C1COCO1
180 to 187 | O=C(O)C#CC(=O)O

melting point [°C] | SMILES
59 | O=C(Cl)c1cccc(C(=O)Cl)n1
137 to 139 | CCOC(=O)c1cc(-c2cccs2)n[nH]1
68 to 70 | OCc1ccc(Cn2cncn2)cc1
57 | Cc1cccc(OCC(O)CNC(C)(C)C)c1C (centres undefined)
23 to 24 | CCC12CC3CC(CC(Br)(C3)C1)C2
28 | CC(=O)OCC#CCOC(C)=O
152 | NN=C1c2ccccc2-c2ccccc21
40 to 44 | Cc1cc(Br)cnc1Cl
300 | Sc1nc(-c2ccccc2)c(-c2ccccc2)[nH]1
81.5 | CCC(C(=O)O)C1(O)CCCCC1 (centres undefined)
169 | CC(=O)Nc1ccc(O)cc1
229 | Nc1ncn(C2OC(CO)C(O)C2O)c(=O)n1 (centres undefined)
174 | O=C(C1=NOC2C(=O)N(c3ccccc3)C(=O)C12)c1cccs1 (centres undefined)
255 | CC(C)C(C)C(O)C(O)C(C)C1CCC2C3COC(=O)C4CC(O)C(O)CC4(C)C3CCC12C (centres undefined)
196 to 203 | O=[N+]([O-])c1ccccc1SC1OC(CO)C(O)C(O)C1O (centres undefined)
196 | COc1ccc(NN=c2c(C)nc3ccccc3[nH]c2=O)cc1
73 to 74 | N#Cc1cccc(N2CCCC2)n1
216 | CC(=O)Oc1c(I)cc(I)cc1C(=O)Nc1ccc(Cl)cc1
224 | Cn1c(=O)c(C2=Nc3ccccc3SC(c3cccs3)C2)c(O)c2ccccc21 (centres undefined)
216 | COC(=O)C1=C(N)Oc2cc(C)n(CCc3ccccc3)c(=O)c2C1c1cccc([N+](=O)[O-])c1 (centres undefined)
70.3 | CC(C)(C)OC(=O)NC(Cc1ccc(Br)s1)C(=O)O (centres undefined)

SMILES | melting point [°C]
Cc1ccc(S(=O)(=O)OC2CCC3(C)C(CCC4C5CCC(=O)C5(C)CCC43)C2)cc1 (centres undefined) | 164 to 166
CC1CC=CC2C3OC3(C)C(C)C3C(Cc4ccccc4)NC(=O)C23OC(=O)OC=CC(C)(O)C1=O (centres undefined) | 206
CC(C)C1(C)N=C(c2nc3ccccc3cc2C(=O)O)NC1=O (centres undefined) | 224
Sc1cc(Cl)c(Cl)cc1Cl | 117 to 118
Cc1c([N+](=O)[O-])cc2c(c1[N+](=O)[O-])C(C)(C)CC2(C)C | 132
CCC1(CC)C(=O)NC(=O)NC1=O | 190
Clc1ccc(C(Cl)Cl)c(Cl)c1Cl | 84
CC12CCC(=O)CC1CCC1C2CCC2(C)C(O)(C(=O)CO)CCC12O (centres undefined) | 218
N#CCCCC#N | -29
CC(=O)Oc1ccc(C#N)cc1 | 57

Source: a melting point compilation (Tetko et al.)
